Reference: patent US20160090556A1, “PRODUCTS COMPRISING MALODOR REDUCTION MATERIALS” (The Procter & Gamble Company, priority 2014, published 2016)
Read-outs that look alike come from different tables or passages of the source.

Experiment: Liquid dish neat product liquid-air partition coefficient
Type: physicochemical
Conditions: for Comment Code: Log of liquid dish neat product liquid-air partition coefficient: code letters K, L
[1] = class code letter within Comment Code

For `CC(=O)c1cc2c(cc1C)C(C)(C)C(C)C2(C)C` (stereo not drawn) [Material 927], the “Log of liquid dish neat product liquid-air partition coefficient (Comment Code K/L)” value (“Log … (Comment Code K/L)” for short) was “K (Log of liquid dish neat product liquid-air partition coefficient greater than or equal to −7)” and the “Comment Code: Log of liquid dish neat product liquid-air partition coefficient” value (shortened to “Comment Code: Log”) was “K (Log of liquid dish neat product liquid-air partition coefficient greater than or equal to −7)”.
In the case of `C=C(C=O)C(C)CCC=C(C)C` (stereo not drawn) [Material 819], the “Comment Code: Log” value is reported as “K (Log of liquid dish neat product liquid-air partition coefficient greater than or equal to −7)”.
For `C=CCCCCCCCCC(=O)OCCC(C)C` [Material 234], the “Log … (Comment Code K/L)” value [1] was “K (Log of liquid dish neat product liquid-air partition coefficient greater than or equal to −7)”.
In the case of `CCCC(=O)OC(C)(C)Cc1ccccc1` [Material 432], the “Log … (Comment Code K/L)” value [1] is reported as “K (Log of liquid dish neat product liquid-air partition coefficient greater than or equal to −7)”.
For `CCCCCCCCC=CC=O` [Material 828], the “Log … (Comment Code K/L)” value was “K (Log of liquid dish neat product liquid-air partition coefficient greater than or equal to −7)”.
In the case of `CCCCCCCCCCCCCO` [Material 1090], the “Log … (Comment Code K/L)” value is reported as “K (Log of liquid dish neat product liquid-air partition coefficient greater than or equal to −7)”.
For `CCC=CCC1C(=O)CCC1CC(=O)OC` (stereo not drawn) [Material 112], the “Log … (Comment Code K/L)” value [1] was “K (Log of liquid dish neat product liquid-air partition coefficient greater than or equal to −7)”.
In the case of `C=CC(=C)CCC=C(C)CCC=C(C)C` [Material 628], the “Log … (Comment Code K/L)” value is reported as “K (Log of liquid dish neat product liquid-air partition coefficient greater than or equal to −7)”.
With `CC(C)=CCCC(C)=CC1OCC(C)O1` (stereo not drawn) [Material 519] the “Log … (Comment Code K/L)” value [1] was “K (Log of liquid dish neat product liquid-air partition coefficient greater than or equal to −7)”.
For `CC1OC(C)C2Cc3ccccc3C2O1` (stereo not drawn) [Material 141], the “Log … (Comment Code K/L)” value [1] was “K (Log of liquid dish neat product liquid-air partition coefficient greater than or equal to −7)” and the “Comment Code: Log” value was “K (Log of liquid dish neat product liquid-air partition coefficient greater than or equal to −7)”.
For `C=CC(C)(CCC=C(C)C)OC(C)OCC` (stereo not drawn) [Material 916], the “Log … (Comment Code K/L)” value was “K (Log of liquid dish neat product liquid-air partition coefficient greater than or equal to −7)”.
With `CC1C(=O)CC2(C)CCCC(C)(C)C23CC13` (stereo not drawn) [Material 804] the “Log … (Comment Code K/L)” value was “K (Log of liquid dish neat product liquid-air partition coefficient greater than or equal to −7)” and the “Comment Code: Log” value was “K (Log of liquid dish neat product liquid-air partition coefficient greater than or equal to −7)”.
With `CCCCCCCC1(C)OCC(C)O1` (stereo not drawn) [Material 838] the “Comment Code: Log” value was “K (Log of liquid dish neat product liquid-air partition coefficient greater than or equal to −7)”.
With `Cc1n[nH]cc1-c1ccccc1` [Material 808] the “Comment Code: Log” value was “K (Log of liquid dish neat product liquid-air partition coefficient greater than or equal to −7)”.
For `C=C1C=CC(C(C)CCC=C(C)C)CC1` (stereo not drawn) [Material 614], the “Log … (Comment Code K/L)” value was “K (Log of liquid dish neat product liquid-air partition coefficient greater than or equal to −7)”.
In the case of `CC(=O)C=CC1C(C)=CCC(C)C1(C)C` (stereo not drawn) [Material 704], the “Log … (Comment Code K/L)” value is reported as “K (Log of liquid dish neat product liquid-air partition coefficient greater than or equal to −7)”.
With `CC(=O)c1ccc2ccccc2c1` [Material 120] the “Log … (Comment Code K/L)” value [1] was “K (Log of liquid dish neat product liquid-air partition coefficient greater than or equal to −7)”.
With `C=CCCC(=O)c1ccccc1` [Material 792] the “Log … (Comment Code K/L)” value was “K (Log of liquid dish neat product liquid-air partition coefficient greater than or equal to −7)”.
In the case of `c1ccc2c(c1)CC1COCOC21` (stereo not drawn) [Material 247], the “Log … (Comment Code K/L)” value [1] is reported as “K (Log of liquid dish neat product liquid-air partition coefficient greater than or equal to −7)”.
With `C/C=C/c1ccc(O)c(OC)c1` [Material 1084] the “Comment Code: Log” value was “K (Log of liquid dish neat product liquid-air partition coefficient greater than or equal to −7)”.
For `CC(C)CC1CC(C)(O)CCO1` (stereo not drawn) [Material 350], the “Log … (Comment Code K/L)” value [1] was “K (Log of liquid dish neat product liquid-air partition coefficient greater than or equal to −7)”.
With `C/C(=C\C#N)CCc1ccccc1` [Material 894] the “Log … (Comment Code K/L)” value was “K (Log of liquid dish neat product liquid-air partition coefficient greater than or equal to −7)”.
With `COC(C=C(C)CCC=C(C)C)OC` [Material 520] the “Log … (Comment Code K/L)” value [1] was “K (Log of liquid dish neat product liquid-air partition coefficient greater than or equal to −7)”.
For `CC(=O)OC1(C)CCC(=C(C)C)CC1` (stereo not drawn) [Material 317], the “Log … (Comment Code K/L)” value [1] was “K (Log of liquid dish neat product liquid-air partition coefficient greater than or equal to −7)”.
For `COc1ccc(CC(C)=O)cc1` [Material 983], the “Comment Code: Log” value was “K (Log of liquid dish neat product liquid-air partition coefficient greater than or equal to −7)”.
For `CCCC(O)Cc1ccccc1` (stereo not drawn) [Material 730], the “Log … (Comment Code K/L)” value was “K (Log of liquid dish neat product liquid-air partition coefficient greater than or equal to −7)”.
For `CC(O)CCc1ccccc1` (stereo not drawn) [Material 98], the “Log … (Comment Code K/L)” value [1] was “K (Log of liquid dish neat product liquid-air partition coefficient greater than or equal to −7)”.
With `C=CC(C)=CCC=C(C)CCC=C(C)C` [Material 710] the “Log … (Comment Code K/L)” value was “K (Log of liquid dish neat product liquid-air partition coefficient greater than or equal to −7)”.
With `CC1=CC[C@@H]2C3CC([C@@H]2C1)[C@@]1(C3)OC1C` (stereo partly drawn) [Material 1007] the “Log … (Comment Code K/L)” value was “K (Log of liquid dish neat product liquid-air partition coefficient greater than or equal to −7)” and the “Comment Code: Log” value was “K (Log of liquid dish neat product liquid-air partition coefficient greater than or equal to −7)”.
With `C=C1CCCC(C)(C)C1C=CC(C)=O` (stereo not drawn) [Material 324] the “Log … (Comment Code K/L)” value [1] was “K (Log of liquid dish neat product liquid-air partition coefficient greater than or equal to −7)”.
For `CCCCCOC(=O)c1ccccc1` [Material 672], the “Comment Code: Log” value was “K (Log of liquid dish neat product liquid-air partition coefficient greater than or equal to −7)”.
With `CCCCCCCCCCCC#N` [Material 498] the “Log … (Comment Code K/L)” value [1] was “K (Log of liquid dish neat product liquid-air partition coefficient greater than or equal to −7)”.
For `CC=CC(=O)C1C(C)=CCCC1(C)C` (stereo not drawn) [Material 880], the “Comment Code: Log” value was “K (Log of liquid dish neat product liquid-air partition coefficient greater than or equal to −7)”.
For `CC/C=C\CCOC(=O)C/C=C\CC` [Material 534], the “Log … (Comment Code K/L)” value [1] was “K (Log of liquid dish neat product liquid-air partition coefficient greater than or equal to −7)”.
With `C=CCCCCCCCCC#N` [Material 352] the “Log … (Comment Code K/L)” value [1] was “K (Log of liquid dish neat product liquid-air partition coefficient greater than or equal to −7)”.
